Measurements as given in patent publication US20100003217A1, “Compounds and Pharmaceutical Compositions for the Treatment of Viral Infections” (priority 2008, published 2010).
Where “and” joins values, the source holds several entries; their conditions need not be identical. Identical values can stand only once.

Experiments:
[1] = test system: rat primary hepatocytes; assay: Metabolic disposition of [^14C]-Compound 1 and [^14C]-2′-C-methyl guanosine in rat primary hepatocytes (incubation medium, cellular extracts, nucleotide levels); assay type: in vitro ADME, Sprague Dawley rat
Outline: (§1)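 Rat, monkey or human primary hepatocytes on collagen I plates (1.6 million cells/mL) were incubated at 37° C with 1 or 10 μM C-8 [^14C]-labelled compound or 2′-C-methyl guanosine for 1, 4, 8 and 24 hours. Medium and 70% methanol cell extracts were analysed by LSC and radio-HPLC. Nucleotides were identified by alkaline phosphatase treatment and retention-time matching to standards.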

[2] = test system: monkey primary hepatocytes; assay: Metabolic disposition of [^14C]-Compound 1 and [^14C]-2′-C-methyl guanosine in monkey primary hepatocytes (incubation medium, cellular extracts, nucleotide levels); assay type: in vitro ADME, Cynomolgus monkey
Outline: as §1

[3] = rat hepatocytes (Rs458), 1 μM [^14C]-Compound 1, 1 h
[4] = rat hepatocytes (Rs458), 1 μM [^14C]-Compound 1, 8 h
[5] = rat hepatocytes (Rs458), 1 μM [^14C]-Compound 1, 24 h
[6] = rat hepatocytes Rs448, 10 μM [^14C]-2′-C-methyl guanosine, 1 h
[7] = rat hepatocytes Rs448, 10 μM [^14C]-2′-C-methyl guanosine, 4 h
[8] = rat hepatocytes Rs448, 10 μM [^14C]-2′-C-methyl guanosine, 8 h
[9] = rat hepatocytes Rs448, 10 μM [^14C]-2′-C-methyl guanosine, 24 h
[10] = rat hepatocytes Rs458, 1 μM [^14C]-2′-C-methyl guanosine, 1 h
[11] = rat hepatocytes Rs458, 1 μM [^14C]-2′-C-methyl guanosine, 8 h
[12] = rat hepatocytes Rs458, 1 μM [^14C]-2′-C-methyl guanosine, 24 h
[13] = rat hepatocytes Rs458, 10 μM [^14C]-2′-C-methyl guanosine, 1 h
[14] = rat hepatocytes Rs458, 10 μM [^14C]-2′-C-methyl guanosine, 4 h
[15] = rat hepatocytes Rs458, 10 μM [^14C]-2′-C-methyl guanosine, 8 h
[16] = rat hepatocytes Rs458, 10 μM [^14C]-2′-C-methyl guanosine, 24 h
[17] = monkey hepatocytes (Cy234), 10 μM [^14C]-Compound 1, 4 h
[18] = monkey hepatocytes Cy230, 10 μM [^14C]-2′-C-methyl guanosine, 1 h
[19] = monkey hepatocytes Cy230, 10 μM [^14C]-2′-C-methyl guanosine, 8 h
[20] = monkey hepatocytes Cy230, 10 μM [^14C]-2′-C-methyl guanosine, 24 h
[21] = monkey hepatocytes Cy234, 10 μM [^14C]-2′-C-methyl guanosine, 1 h
[22] = monkey hepatocytes Cy234, 10 μM [^14C]-2′-C-methyl guanosine, 4 h
[23] = monkey hepatocytes Cy234, 10 μM [^14C]-2′-C-methyl guanosine, 8 h
[24] = monkey hepatocytes Cy234, 10 μM [^14C]-2′-C-methyl guanosine, 24 h

- metabolites observed in cellular extracts (% of total radioactivity) ([1]; rat hepatocytes (Rs448, Rs458), 10 μM [^14C]-Compound 1, 1 h, listed as Compd 6): 11.4% and 12.3%
- metabolites observed in cellular extracts (% of total radioactivity) ([1]; rat hepatocytes (Rs448, Rs458), 10 μM [^14C]-Compound 1, 4 h, listed as Compd 6): 13.4% and 16.7%
- metabolites observed in cellular extracts (% of total radioactivity) ([1]; rat hepatocytes (Rs448, Rs458), 10 μM [^14C]-Compound 1, 8 h, listed as Compd 6): 12.7% and 16.8%
- metabolites observed in cellular extracts (% of total radioactivity) ([1]; rat hepatocytes (Rs448, Rs458), 10 μM [^14C]-Compound 1, 24 h, listed as Compd 6): 15.2% and 14.6%
- 2′-C-methyl guanosine nucleotide levels in cellular extracts [1, 3]: 20.0 pmol/million cells
- metabolites observed in cellular extracts (% of total radioactivity) [1, 3]: 13.0%
- 2′-C-methyl guanosine nucleotide levels in cellular extracts [1, 4]: 41.2 pmol/million cells
- metabolites observed in cellular extracts (% of total radioactivity) [1, 4]: 13.27%
- 2′-C-methyl guanosine nucleotide levels in cellular extracts [1, 5]: 30.0 pmol/million cells
- metabolites observed in cellular extracts (% of total radioactivity) [1, 5]: 18.1%
- 2′-C-methyl guanosine nucleotide levels in cellular extracts ([1]; rat hepatocytes Rs448, 10 μM [^14C]-2′-C-methyl guanosine, 0 h): 0 pmol/million cells
- 2′-C-methyl guanosine nucleotide levels in cellular extracts [1, 6]: 7.00 pmol/million cells
- Major metabolites observed in cellular extracts (% of total radioactivity) [1, 6]: 1.24 % of total radioactivity
- 2′-C-methyl guanosine nucleotide levels in cellular extracts [1, 7]: 28.0 pmol/million cells
- Major metabolites observed in cellular extracts (% of total radioactivity) [1, 7]: 3.54 % of total radioactivity
- 2′-C-methyl guanosine nucleotide levels in cellular extracts [1, 8]: 47.0 pmol/million cells
- Major metabolites observed in cellular extracts (% of total radioactivity) [1, 8]: 4.76 % of total radioactivity
- 2′-C-methyl guanosine nucleotide levels in cellular extracts [1, 9]: 101 pmol/million cells
- Major metabolites observed in cellular extracts (% of total radioactivity) [1, 9]: 10.4 % of total radioactivity
- 2′-C-methyl guanosine nucleotide levels in cellular extracts ([1]; rat hepatocytes Rs448, 10 μM [^14C]-Compound 1, 0 h): 0 pmol/million cells
- 2′-C-methyl guanosine nucleotide levels in cellular extracts ([1]; rat hepatocytes Rs448, 10 μM [^14C]-Compound 1, 1 h): 112 pmol/million cells
- 2′-C-methyl guanosine nucleotide levels in cellular extracts ([1]; rat hepatocytes Rs448, 10 μM [^14C]-Compound 1, 4 h): 269 pmol/million cells
- 2′-C-methyl guanosine nucleotide levels in cellular extracts ([1]; rat hepatocytes Rs448, 10 μM [^14C]-Compound 1, 8 h): 311 pmol/million cells
- 2′-C-methyl guanosine nucleotide levels in cellular extracts ([1]; rat hepatocytes Rs448, 10 μM [^14C]-Compound 1, 24 h): 215 pmol/million cells
- 2′-C-methyl guanosine nucleotide levels in cellular extracts [1, 10]: 0.85 pmol/million cells
- Major metabolites observed in cellular extracts (% of total radioactivity) [1, 10]: 1.50 % of total radioactivity
- 2′-C-methyl guanosine nucleotide levels in cellular extracts [1, 11]: 4.00 pmol/million cells
- Major metabolites observed in cellular extracts (% of total radioactivity) [1, 11]: 5.14 % of total radioactivity
- 2′-C-methyl guanosine nucleotide levels in cellular extracts [1, 12]: 8.00 pmol/million cells
- Major metabolites observed in cellular extracts (% of total radioactivity) [1, 12]: 9.88 % of total radioactivity
- 2′-C-methyl guanosine nucleotide levels in cellular extracts ([1]; rat hepatocytes Rs458, 10 μM [^14C]-2′-C-methyl guanosine, 0 h): 0 pmol/million cells
- 2′-C-methyl guanosine nucleotide levels in cellular extracts [1, 13]: 5.60 pmol/million cells
- Major metabolites observed in cellular extracts (% of total radioactivity) [1, 13]: 1.08 % of total radioactivity
- 2′-C-methyl guanosine nucleotide levels in cellular extracts [1, 14]: 28.0 pmol/million cells
- Major metabolites observed in cellular extracts (% of total radioactivity) [1, 14]: 4.01 % of total radioactivity
- 2′-C-methyl guanosine nucleotide levels in cellular extracts [1, 15]: 48.0 pmol/million cells
- Major metabolites observed in cellular extracts (% of total radioactivity) [1, 15]: 5.42 % of total radioactivity
- 2′-C-methyl guanosine nucleotide levels in cellular extracts [1, 16]: 91.0 pmol/million cells
- Major metabolites observed in cellular extracts (% of total radioactivity) [1, 16]: 9.65 % of total radioactivity
- 2′-C-methyl guanosine nucleotide levels in cellular extracts ([1]; rat hepatocytes Rs458, 10 μM [^14C]-Compound 1, 0 h): 0 pmol/million cells
- 2′-C-methyl guanosine nucleotide levels in cellular extracts ([1]; rat hepatocytes Rs458, 10 μM [^14C]-Compound 1, 1 h): 129 pmol/million cells
- 2′-C-methyl guanosine nucleotide levels in cellular extracts ([1]; rat hepatocytes Rs458, 10 μM [^14C]-Compound 1, 4 h): 326 pmol/million cells
- 2′-C-methyl guanosine nucleotide levels in cellular extracts ([1]; rat hepatocytes Rs458, 10 μM [^14C]-Compound 1, 8 h): 375 pmol/million cells
- 2′-C-methyl guanosine nucleotide levels in cellular extracts ([1]; rat hepatocytes Rs458, 10 μM [^14C]-Compound 1, 24 h): 207 pmol/million cells
- metabolites observed in cellular extracts (% of total radioactivity) ([2]; monkey hepatocytes (Cy230, Cy234), 10 μM [^14C]-Compound 1, 1 h): 9.25% and 9.65%
- metabolites observed in cellular extracts (% of total radioactivity) ([2]; monkey hepatocytes (Cy230, Cy234), 10 μM [^14C]-Compound 1, 8 h): 13.8% and 14.9%
- metabolites observed in cellular extracts (% of total radioactivity) ([2]; monkey hepatocytes (Cy230, Cy234), 10 μM [^14C]-Compound 1, 24 h): 18.5% and 16.0%
- 2′-C-methyl guanosine nucleotide levels in cellular extracts [2, 17]: 44.5 pmol/million cells
- metabolites observed in cellular extracts (% of total radioactivity) [2, 17]: 17.1%
- 2′-C-methyl guanosine nucleotide levels in cellular extracts ([2]; monkey hepatocytes Cy230, 10 μM [^14C]-2′-C-methyl guanosine, 0 h): 0 pmol/million cells
- 2′-C-methyl guanosine nucleotide levels in cellular extracts [2, 19]: 2.07 pmol/million cells
- Major metabolites observed in cellular extracts (% of total radioactivity) [2, 19]: 2.82 % of total radioactivity
- 2′-C-methyl guanosine nucleotide levels in cellular extracts [2, 20]: 2.16 pmol/million cells
- Major metabolites observed in cellular extracts (% of total radioactivity) [2, 20]: 8.41 % of total radioactivity
- 2′-C-methyl guanosine nucleotide levels in cellular extracts ([2]; monkey hepatocytes Cy230, 10 μM [^14C]-Compound 1, 0 h): 0 pmol/million cells
- 2′-C-methyl guanosine nucleotide levels in cellular extracts ([2]; monkey hepatocytes Cy230, 10 μM [^14C]-Compound 1, 1 h): 26.3 pmol/million cells
- 2′-C-methyl guanosine nucleotide levels in cellular extracts ([2]; monkey hepatocytes Cy230, 10 μM [^14C]-Compound 1, 8 h): 153 pmol/million cells
- 2′-C-methyl guanosine nucleotide levels in cellular extracts ([2]; monkey hepatocytes Cy230, 10 μM [^14C]-Compound 1, 24 h): 88.4 pmol/million cells
- 2′-C-methyl guanosine nucleotide levels in cellular extracts ([2]; monkey hepatocytes Cy234, 10 μM [^14C]-2′-C-methyl guanosine, 0 h): 0 pmol/million cells
- 2′-C-methyl guanosine nucleotide levels in cellular extracts [2, 21]: 0.95 pmol/million cells
- Major metabolites observed in cellular extracts (% of total radioactivity) [2, 21]: 2.19 % of total radioactivity
- 2′-C-methyl guanosine nucleotide levels in cellular extracts [2, 22]: 5.30 pmol/million cells
- Major metabolites observed in cellular extracts (% of total radioactivity) [2, 22]: 6.51 % of total radioactivity
- 2′-C-methyl guanosine nucleotide levels in cellular extracts [2, 23]: 7.00 pmol/million cells
- Major metabolites observed in cellular extracts (% of total radioactivity) [2, 23]: 7.90 % of total radioactivity
- 2′-C-methyl guanosine nucleotide levels in cellular extracts [2, 24]: 15.0 pmol/million cells
- Major metabolites observed in cellular extracts (% of total radioactivity) [2, 24]: 14.1 % of total radioactivity
- 2′-C-methyl guanosine nucleotide levels in cellular extracts ([2]; monkey hepatocytes Cy234, 10 μM [^14C]-Compound 1, 0 h): 0 pmol/million cells
- 2′-C-methyl guanosine nucleotide levels in cellular extracts ([2]; monkey hepatocytes Cy234, 10 μM [^14C]-Compound 1, 1 h): 6.10 pmol/million cells
- 2′-C-methyl guanosine nucleotide levels in cellular extracts ([2]; monkey hepatocytes Cy234, 10 μM [^14C]-Compound 1, 8 h): 91.0 pmol/million cells
- 2′-C-methyl guanosine nucleotide levels in cellular extracts ([2]; monkey hepatocytes Cy234, 10 μM [^14C]-Compound 1, 24 h): 111 pmol/million cells
Compound: C[C@@]1(O)[C@H](O)[C@@H](COP(=O)(O)OP(=O)(O)O)O[C@H]1n1cnc2c(=O)[nH]c(N)nc21 [Compound 6, [(2R)-2-methyl-β-D-ribofuranosyl]guanine 5′-diphosphate]
- 2′-C-methyl guanosine nucleotide levels in cellular extracts ([1]; rat hepatocytes (Rs458), 1 μM [^14C]-Compound 1, 0 h): BLD (BLD = below limit of detection (0.02 pmol/million cells))
- 2′-C-methyl guanosine nucleotide levels in cellular extracts ([1]; rat hepatocytes Rs458, 1 μM [^14C]-2′-C-methyl guanosine, 0 h): BLD (BLD = below limit of detection (0.02 pmol/million cells))
- 2′-C-methyl guanosine nucleotide levels in cellular extracts [2, 18]: BLD (BLD = below limit of detection (0.02 pmol/million cells))
- Major metabolites observed in cellular extracts (% of total radioactivity) [2, 18]: BLD (BLD = below limit of detection (30 DPM))
